Laboratory results as given in ChEMBL document CHEMBL3991601, “The target landscape of clinical kinase drugs” (Science, 2017).
Active and inactive are the calls of the source.

Columns and labels:
[1] = target: Serine/threonine-protein kinase 26 (Homo sapiens, UniProt Q9P289)
Actin-related protein 2 = Actin-related protein 2 (Homo sapiens, UniProt P61160)
[2] = target: Ras-related protein Rab-6A (Homo sapiens, UniProt P20340)
[3] = target: Casein kinase I isoform gamma-1 (Homo sapiens, UniProt Q9HCP0)
Sequence of Casein kinase I isoform gamma-1 (Q9HCP0 whole entry, canonical isoform): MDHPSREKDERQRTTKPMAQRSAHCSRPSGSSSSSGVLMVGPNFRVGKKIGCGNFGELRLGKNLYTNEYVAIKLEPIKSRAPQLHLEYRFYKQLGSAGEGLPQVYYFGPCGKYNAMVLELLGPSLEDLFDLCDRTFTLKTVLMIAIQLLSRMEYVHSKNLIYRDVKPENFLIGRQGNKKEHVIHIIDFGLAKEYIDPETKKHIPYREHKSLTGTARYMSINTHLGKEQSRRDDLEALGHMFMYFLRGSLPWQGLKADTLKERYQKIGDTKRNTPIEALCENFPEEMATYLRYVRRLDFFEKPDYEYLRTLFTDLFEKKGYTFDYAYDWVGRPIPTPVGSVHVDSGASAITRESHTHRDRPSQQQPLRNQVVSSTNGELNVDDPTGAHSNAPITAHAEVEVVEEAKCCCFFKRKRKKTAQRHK

[4] = target: Serine/threonine-protein kinase/endoribonuclease IRE2 (Homo sapiens, UniProt Q76MJ5)
Sequence of Serine/threonine-protein kinase/endoribonuclease IRE2 (Q76MJ5 whole entry): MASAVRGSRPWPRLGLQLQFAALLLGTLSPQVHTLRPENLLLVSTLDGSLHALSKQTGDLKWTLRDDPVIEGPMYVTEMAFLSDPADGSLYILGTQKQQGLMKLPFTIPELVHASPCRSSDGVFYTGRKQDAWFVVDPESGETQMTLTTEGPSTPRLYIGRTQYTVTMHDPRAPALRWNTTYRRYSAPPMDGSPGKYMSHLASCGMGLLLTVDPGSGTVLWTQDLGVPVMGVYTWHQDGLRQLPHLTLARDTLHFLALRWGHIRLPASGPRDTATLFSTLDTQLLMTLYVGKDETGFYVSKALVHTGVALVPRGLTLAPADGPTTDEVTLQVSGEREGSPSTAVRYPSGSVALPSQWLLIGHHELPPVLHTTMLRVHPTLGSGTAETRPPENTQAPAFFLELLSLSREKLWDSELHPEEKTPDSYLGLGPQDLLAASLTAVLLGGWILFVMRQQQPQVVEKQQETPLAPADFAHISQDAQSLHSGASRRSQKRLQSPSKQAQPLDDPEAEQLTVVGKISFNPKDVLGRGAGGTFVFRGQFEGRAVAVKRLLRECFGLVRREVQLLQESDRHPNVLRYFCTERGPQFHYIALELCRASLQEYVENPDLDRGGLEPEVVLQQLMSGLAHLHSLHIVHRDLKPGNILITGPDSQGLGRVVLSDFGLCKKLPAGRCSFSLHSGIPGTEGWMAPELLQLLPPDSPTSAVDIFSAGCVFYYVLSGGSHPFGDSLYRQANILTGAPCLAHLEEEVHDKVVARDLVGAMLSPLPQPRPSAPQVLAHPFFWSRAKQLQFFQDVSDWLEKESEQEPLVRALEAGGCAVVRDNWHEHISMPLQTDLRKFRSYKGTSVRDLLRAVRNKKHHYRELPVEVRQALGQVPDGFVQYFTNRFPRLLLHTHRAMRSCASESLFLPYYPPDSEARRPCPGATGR

[5] = target: T1, Bone morphogenetic protein receptor type-2 (Homo sapiens, UniProt Q13873)
T1 sequence (Q13873 whole entry): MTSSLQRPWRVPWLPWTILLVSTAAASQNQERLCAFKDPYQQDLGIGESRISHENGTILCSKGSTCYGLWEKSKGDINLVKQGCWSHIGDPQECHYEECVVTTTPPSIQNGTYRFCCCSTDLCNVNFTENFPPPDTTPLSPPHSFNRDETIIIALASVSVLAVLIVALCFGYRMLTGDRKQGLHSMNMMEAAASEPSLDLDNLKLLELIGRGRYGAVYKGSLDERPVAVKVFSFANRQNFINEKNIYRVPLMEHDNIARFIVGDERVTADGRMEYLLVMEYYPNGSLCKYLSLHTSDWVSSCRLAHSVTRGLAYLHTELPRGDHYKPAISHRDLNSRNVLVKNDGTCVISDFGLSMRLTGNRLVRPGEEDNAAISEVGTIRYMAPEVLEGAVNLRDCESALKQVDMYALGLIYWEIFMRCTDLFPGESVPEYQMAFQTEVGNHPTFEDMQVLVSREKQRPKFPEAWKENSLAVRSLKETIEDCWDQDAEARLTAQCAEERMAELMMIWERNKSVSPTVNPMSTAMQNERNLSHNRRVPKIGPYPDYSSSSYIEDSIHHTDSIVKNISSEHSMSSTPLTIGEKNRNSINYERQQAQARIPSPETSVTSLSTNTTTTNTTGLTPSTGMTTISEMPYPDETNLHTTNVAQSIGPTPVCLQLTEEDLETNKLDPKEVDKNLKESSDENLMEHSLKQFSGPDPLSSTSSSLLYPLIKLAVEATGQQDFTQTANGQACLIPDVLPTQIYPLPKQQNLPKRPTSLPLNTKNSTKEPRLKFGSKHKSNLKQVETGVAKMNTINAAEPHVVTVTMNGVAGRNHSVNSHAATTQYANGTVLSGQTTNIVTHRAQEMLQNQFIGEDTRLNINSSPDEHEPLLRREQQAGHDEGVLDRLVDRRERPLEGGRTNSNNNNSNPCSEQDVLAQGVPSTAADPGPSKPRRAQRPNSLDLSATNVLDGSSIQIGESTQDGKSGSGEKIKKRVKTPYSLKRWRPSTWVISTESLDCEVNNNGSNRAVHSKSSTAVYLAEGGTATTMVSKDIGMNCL

[6] = target: T2, Ras-related protein Rab-27A (Homo sapiens, UniProt P51159)
T2 sequence (P51159 whole entry): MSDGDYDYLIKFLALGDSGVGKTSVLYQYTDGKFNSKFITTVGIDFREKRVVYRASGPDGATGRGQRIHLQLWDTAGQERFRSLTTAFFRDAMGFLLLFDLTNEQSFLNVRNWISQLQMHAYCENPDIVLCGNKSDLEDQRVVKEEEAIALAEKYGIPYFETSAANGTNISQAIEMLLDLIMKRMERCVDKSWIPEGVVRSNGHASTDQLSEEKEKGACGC

[7] = target: T3, Tyrosine-protein kinase Tec (Homo sapiens, UniProt P42680)
T3 sequence (P42680 whole entry): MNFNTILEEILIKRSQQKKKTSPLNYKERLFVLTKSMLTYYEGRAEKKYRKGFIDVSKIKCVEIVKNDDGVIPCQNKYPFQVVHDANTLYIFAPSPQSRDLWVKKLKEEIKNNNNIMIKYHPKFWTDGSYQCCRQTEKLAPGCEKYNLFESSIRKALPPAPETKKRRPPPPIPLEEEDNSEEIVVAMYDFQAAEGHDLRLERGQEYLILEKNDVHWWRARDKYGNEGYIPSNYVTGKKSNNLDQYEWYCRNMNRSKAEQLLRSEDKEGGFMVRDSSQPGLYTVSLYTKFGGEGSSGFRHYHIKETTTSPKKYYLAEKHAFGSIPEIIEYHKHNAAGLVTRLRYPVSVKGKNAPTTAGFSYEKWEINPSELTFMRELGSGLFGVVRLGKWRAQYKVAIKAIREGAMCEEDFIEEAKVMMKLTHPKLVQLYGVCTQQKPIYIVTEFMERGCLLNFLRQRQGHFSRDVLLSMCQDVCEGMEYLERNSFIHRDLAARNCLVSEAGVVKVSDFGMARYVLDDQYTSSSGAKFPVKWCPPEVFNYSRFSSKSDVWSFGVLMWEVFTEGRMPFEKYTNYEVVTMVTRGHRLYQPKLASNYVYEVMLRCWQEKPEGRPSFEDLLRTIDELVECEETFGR

[8] = target: GTP-binding nuclear protein Ran (Homo sapiens, UniProt P62826)
[9] = target: T4, Acyl-CoA dehydrogenase family member 11 (Homo sapiens, UniProt Q709F0)
T4 sequence (Q709F0 whole entry): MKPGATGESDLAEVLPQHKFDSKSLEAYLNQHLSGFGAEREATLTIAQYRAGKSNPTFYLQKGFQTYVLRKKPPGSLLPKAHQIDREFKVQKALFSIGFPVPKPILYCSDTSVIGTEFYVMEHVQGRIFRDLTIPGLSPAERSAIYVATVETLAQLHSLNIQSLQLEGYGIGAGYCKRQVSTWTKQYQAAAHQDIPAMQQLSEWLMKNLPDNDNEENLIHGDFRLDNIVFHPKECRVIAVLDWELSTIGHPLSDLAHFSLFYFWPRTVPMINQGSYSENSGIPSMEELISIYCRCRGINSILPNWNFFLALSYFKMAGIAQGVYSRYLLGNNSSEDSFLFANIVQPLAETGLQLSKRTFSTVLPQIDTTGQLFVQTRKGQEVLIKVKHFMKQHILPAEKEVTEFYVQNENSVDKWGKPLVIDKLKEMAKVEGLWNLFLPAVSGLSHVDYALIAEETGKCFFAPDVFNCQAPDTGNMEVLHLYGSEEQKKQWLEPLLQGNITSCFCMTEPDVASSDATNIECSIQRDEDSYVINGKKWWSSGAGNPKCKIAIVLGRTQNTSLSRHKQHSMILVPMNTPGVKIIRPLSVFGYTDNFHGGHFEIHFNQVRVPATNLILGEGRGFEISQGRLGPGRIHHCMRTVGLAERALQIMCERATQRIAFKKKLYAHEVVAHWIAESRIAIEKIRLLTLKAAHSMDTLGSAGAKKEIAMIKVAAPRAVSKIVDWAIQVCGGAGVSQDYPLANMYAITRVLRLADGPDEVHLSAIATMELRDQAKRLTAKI
Note: in the data inactive means no Kd found up to 30 µM.

Sequence of Serine/threonine-protein kinase 26 (Q9P289 whole entry): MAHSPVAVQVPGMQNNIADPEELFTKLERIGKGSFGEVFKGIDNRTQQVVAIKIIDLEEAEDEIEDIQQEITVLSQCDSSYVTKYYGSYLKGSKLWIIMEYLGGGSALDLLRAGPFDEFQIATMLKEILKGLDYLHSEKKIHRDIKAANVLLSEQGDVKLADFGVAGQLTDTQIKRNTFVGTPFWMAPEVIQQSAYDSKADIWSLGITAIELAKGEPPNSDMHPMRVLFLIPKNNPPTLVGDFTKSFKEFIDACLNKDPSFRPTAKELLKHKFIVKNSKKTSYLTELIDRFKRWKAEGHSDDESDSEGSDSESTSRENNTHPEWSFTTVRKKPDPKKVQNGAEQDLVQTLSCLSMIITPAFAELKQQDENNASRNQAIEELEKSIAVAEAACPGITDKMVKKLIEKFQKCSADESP
Sequence of Ras-related protein Rab-6A (P20340 whole entry, canonical isoform): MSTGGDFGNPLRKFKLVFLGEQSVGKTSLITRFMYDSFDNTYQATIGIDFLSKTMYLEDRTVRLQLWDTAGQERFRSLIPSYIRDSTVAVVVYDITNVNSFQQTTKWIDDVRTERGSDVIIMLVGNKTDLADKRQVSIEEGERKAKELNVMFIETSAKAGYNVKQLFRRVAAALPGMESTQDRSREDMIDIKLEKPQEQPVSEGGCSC

O=c1sn(-c2cccc3ccccc23)c(=O)n1Cc1ccccc1 [TIDEGLUSIB]
Kd [1]: > 30 µM (inactive) | Kd (Actin-related protein 2): > 30 µM (inactive) | Kd [2]: > 30 µM (inactive) | Kd [3]: > 30 µM (inactive) | Kd [4]: > 30 µM (inactive) | Kd [5]: > 30 µM (inactive) | Kd [6]: > 30 µM (inactive) | Kd [7]: > 30 µM (inactive) | Kd [8]: > 30 µM (inactive)

Cn1ncc(Cl)c1-c1cc(C(=O)N[C@H](CN)Cc2cccc(F)c2)sc1Cl [AFURESERTIB]
Kd [1]: > 30 µM (inactive) | Kd (Actin-related protein 2): > 30 µM (inactive) | Kd [2]: > 30 µM (inactive) | Kd [3]: > 30 µM (inactive) | Kd [4]: > 30 µM (inactive) | Kd [5]: > 30 µM (inactive) | Kd [7]: > 30 µM (inactive)

CN(C)C(=O)c1cc2cnc(Nc3ccc(N4CCNCC4)cn3)nc2n1C1CCCC1 [RIBOCICLIB]
Kd [1]: > 30 µM (inactive) | Kd (Actin-related protein 2): > 30 µM (inactive) | Kd [2]: > 30 µM (inactive) | Kd [3]: > 30 µM (inactive) | Kd [4]: > 30 µM (inactive) | Kd [5]: > 30 µM (inactive) | Kd [6]: > 30 µM (inactive) | Kd [7]: > 30 µM (inactive) | Kd [8]: > 30 µM (inactive)

C[C@@H](c1ccc2nccn2c1)n1nnc2ncc(-c3cnn(C)c3)nc21 [SAVOLITINIB]
Kd [1]: > 30 µM (inactive) | Kd (Actin-related protein 2): > 30 µM (inactive) | Kd [2]: > 30 µM (inactive) | Kd [3]: > 30 µM (inactive) | Kd [4]: > 30 µM (inactive) | Kd [5]: > 30 µM (inactive) | Kd [6]: > 30 µM (inactive) | Kd [7]: > 30 µM (inactive) | Kd [8]: > 30 µM (inactive)

COc1cc(N2CCC(N3CCN(C)CC3)CC2)ccc1Nc1ncnc(Nc2ccccc2S(=O)(=O)C(C)C)n1 [ASP-3026]
Kd [1]: > 30 µM (inactive) | Kd [2]: > 30 µM (inactive) | Kd [3]: > 30 µM (inactive) | Kd [4]: > 30 µM (inactive) | Kd [5]: > 30 µM (inactive) | Kd [6]: > 30 µM (inactive) | Kd [7]: 1.02 µM (active) | Kd [8]: > 30 µM (inactive)

C=CC(=O)N1CCC(Oc2cc3c(Nc4ccc(Cl)c(Cl)c4F)ncnc3cc2OC)CC1 [POZIOTINIB]
Kd [1]: > 30 µM (inactive) | Kd [2]: > 30 µM (inactive) | Kd [3]: > 30 µM (inactive) | Kd [4]: > 30 µM (inactive) | Kd [5]: > 30 µM (inactive) | Kd [6]: > 30 µM (inactive) | Kd [7]: 0.069 µM (active) | Kd [8]: > 30 µM (inactive)

Cc1ccc(-n2nc(C(C)(C)C)cc2NC(=O)NCc2cc(F)ccc2Oc2ccc3c(cnn3CCO)c2)cc1 [PEXMETINIB]
Kd [1]: > 30 µM (inactive) | Kd (Actin-related protein 2): > 30 µM (inactive) | Kd [2]: > 30 µM (inactive) | Kd [3]: > 30 µM (inactive) | Kd [4]: > 30 µM (inactive) | Kd [5]: > 30 µM (inactive) | Kd [6]: > 30 µM (inactive) | Kd [7]: > 30 µM (inactive) | Kd [8]: > 30 µM (inactive)

Cc1cn(-c2cc(NC(=O)c3ccc(C)c(Nc4nccc(-c5cccnc5)n4)c3)cc(C(F)(F)F)c2)cn1 [NILOTINIB]
Kd (Actin-related protein 2): > 30 µM (inactive) | Kd [2]: > 30 µM (inactive) | Kd [4]: > 30 µM (inactive) | Kd [6]: > 30 µM (inactive) | Kd [9]: > 30 µM (inactive) | Kd [8]: > 30 µM (inactive)

Cc1cc(Nc2cc(N3CCN(C)CC3)nc(/C=C/c3ccccc3)n2)n[nH]1 [ENMD-2076]
Kd (Actin-related protein 2): > 30 µM (inactive) | Kd [2]: > 30 µM (inactive) | Kd [4]: > 30 µM (inactive) | Kd [6]: > 30 µM (inactive) | Kd [9]: > 30 µM (inactive) | Kd [7]: > 30 µM (inactive) | Kd [8]: > 30 µM (inactive)

CN1CC[C@@H](c2c(O)cc(O)c3c(=O)cc(-c4ccccc4Cl)oc23)[C@@H]1CO
Kd [1]: > 30 µM (inactive) | Kd (Actin-related protein 2): > 30 µM (inactive) | Kd [2]: > 30 µM (inactive) | Kd [3]: > 30 µM (inactive) | Kd [4]: > 30 µM (inactive) | Kd [5]: > 30 µM (inactive) | Kd [6]: > 30 µM (inactive) | Kd [7]: > 30 µM (inactive) | Kd [8]: > 30 µM (inactive)

CCn1c(-c2nonc2N)nc2c(C#CC(C)(C)O)ncc(OC[C@H]3CCCNC3)c21 [GSK-690693]
Kd (Actin-related protein 2): > 30 µM (inactive) | Kd [2]: > 30 µM (inactive) | Kd [4]: > 30 µM (inactive) | Kd [6]: > 30 µM (inactive) | Kd [8]: > 30 µM (inactive)

C1=C/COCc2cc(ccc2OCCN2CCCC2)Nc2nccc(n2)-c2cccc(c2)COC/1 [PACRITINIB]
Kd [1]: > 30 µM (inactive) | Kd [2]: > 30 µM (inactive) | Kd [3]: > 30 µM (inactive) | Kd [4]: > 30 µM (inactive) | Kd [5]: > 30 µM (inactive) | Kd [7]: > 30 µM (inactive) | Kd [8]: > 30 µM (inactive)

CN1CCN(c2ccc3nc(-c4c(N)c5c(F)cccc5[nH]c4=O)[nH]c3c2)CC1 [DOVITINIB]
Kd (Actin-related protein 2): > 30 µM (inactive) | Kd [2]: > 30 µM (inactive) | Kd [4]: > 30 µM (inactive) | Kd [6]: > 30 µM (inactive) | Kd [9]: > 30 µM (inactive) | Kd [8]: > 30 µM (inactive)

Nc1nc(N)c2nc(-c3cccc(O)c3)c(-c3cccc(O)c3)nc2n1 [TG100-115]
Kd [2]: > 30 µM (inactive) | Kd [4]: > 30 µM (inactive) | Kd [6]: > 30 µM (inactive) | Kd [9]: > 30 µM (inactive) | Kd [8]: > 30 µM (inactive)

O=C(Nc1ccc(-c2ccnc(Nc3ccc(N4CCOCC4)cc3)n2)cc1)C1CCCN1 (stereo unspecified) [XL-019]
Kd [1]: > 30 µM (inactive) | Kd (Actin-related protein 2): > 30 µM (inactive) | Kd [2]: > 30 µM (inactive) | Kd [3]: > 30 µM (inactive) | Kd [4]: > 30 µM (inactive) | Kd [5]: > 30 µM (inactive) | Kd [6]: > 30 µM (inactive) | Kd [7]: > 30 µM (inactive) | Kd [8]: > 30 µM (inactive)

COc1cc(CCc2cc(NC(=O)c3ccc(N4C[C@@H](C)N[C@@H](C)C4)cc3)n[nH]2)cc(OC)c1 [AZD-4547]
Kd (Actin-related protein 2): > 30 µM (inactive) | Kd [2]: > 30 µM (inactive) | Kd [3]: > 30 µM (inactive) | Kd [4]: > 30 µM (inactive) | Kd [5]: > 30 µM (inactive) | Kd [9]: > 30 µM (inactive) | Kd [7]: > 30 µM (inactive) | Kd [8]: > 30 µM (inactive)
